Source: the supplement of paper PMC10307832

Key:
Assay in all cases: relative viability (nuclei count vs DMSO), 5 days (fraction); higher = more cells survive
[1] = compound: N=C1NC(=O)/C(=C/c2ccc(O)cc2)S1 [Mirin] + Cc1cc(Nc2cc(N3CCN(C)CC3)nc(Sc3ccc(NC(=O)C4CC4)cc3)n2)n[nH]1 [Tozasertib] (partner 0.1 µM)
Method in brief: (§1)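 Cells from lung cancer lines were seeded into 1536-well plates and, one day later, dosed by pin tool. Treatments were either a single drug or a fixed dose of an anchor drug with five library-drug doses (not always all listed) in √10 steps. After 5 days, nuclei were stained in a one-step fixation (final 0.05% Triton X-100, 1% formaldehyde, 1 ug/ml Hoechst) and counted on 4× images, and relative viability is the treated-to-vehicle nuclei ratio, as the median of duplicate plates.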

[2] = compound: CCC1=CN=CN=C1N2CCN(CC2)CC3=NC4=C(N3)C=C(C=C4)C(F)(F)F + Nc1nc2[nH]cc(CCc3ccc(C(=O)N[C@@H](CCC(=O)O)C(=O)O)cc3)c2c(=O)[nH]1 [Pemetrexed] (partner 0.2 µM)
Method in brief: as §1

[3] = compound: CCC1=CN=CN=C1N2CCN(CC2)CC3=NC4=C(N3)C=C(C=C4)C(F)(F)F + O=C(CCCCCCC(=O)Nc1ccccc1)NO [Vorinostat] (partner 1 µM)
Method in brief: as §1

[4] = compound: N=C1NC(=O)/C(=C/c2ccc(O)cc2)S1 [Mirin] + O=C(c1cc(Cc2n[nH]c(=O)c3ccccc23)ccc1F)N1CCN(C(=O)C2CC2)CC1 [Olaparib] (partner 8 µM)
Method in brief: as §1

Row | Cell Line | relative viability ([1]; first compound 0.25 µM) | relative viability ([1]; first compound 2.5 µM) | relative viability ([1]; first compound 7.906 µM) | relative viability ([1]; first compound 25 µM) | relative viability ([2]; first compound 0.04 µM) | relative viability ([2]; first compound 0.1265 µM) | relative viability ([2]; first compound 0.4 µM) | relative viability ([2]; first compound 1.265 µM) | relative viability ([2]; first compound 4 µM) | relative viability ([3]; first compound 0.04 µM) | relative viability ([3]; first compound 0.1265 µM) | relative viability ([3]; first compound 0.4 µM) | relative viability ([3]; first compound 1.265 µM) | relative viability ([3]; first compound 4 µM) | relative viability ([4]; first compound 0.25 µM) | relative viability ([4]; first compound 0.7906 µM) | relative viability ([4]; first compound 2.5 µM) | relative viability ([4]; first compound 7.906 µM) | relative viability ([4]; first compound 25 µM) | relative viability ([1]; first compound 0.7906 µM)
1 | LK-2 | 0.188 | 0.149 | 0.166 | 0.16 | 0.281 | 0.259 | 0.253 | 0.199 | 0.302 | 0.245 | 0.235 | 0.356 | 0.223 | 0.244 | 0.629 | 0.454 | 0.695 | 0.489 | 0.546 | 
2 | NCI-H1650 | 0.379 | 0.421 | 0.325 | 0.277 | 0.456 | 0.333 | 0.401 | 0.364 | 0.393 | 0.635 | 0.73 | 0.503 | 0.359 | 0.636 | 0.789 | 0.929 | 0.817 | 0.755 | 0.732 | 0.483
3 | NCI-H441 | 0.719 | 0.634 | 0.551 | 0.26 | 0.231 | 0.274 | 0.274 | 0.204 | 0.265 | 0.777 | 0.8 | 0.659 | 0.651 | 0.868 | 0.468 | 0.582 | 0.674 | 0.412 | 0.401 | 0.762
4 | NCI-H23 | 0.496 | 0.427 | 0.288 | 0.256 | 0.579 | 0.755 | 0.615 | 0.646 | 0.558 | 0.567 | 0.65 | 0.453 | 0.606 | 0.808 | 0.317 |  | 0.342 | 0.248 | 0.377 | 
5 | NCI-H1395 | 0.703 | 0.66 | 0.772 | 0.72 | 0.862 | 0.754 | 0.896 |  | 0.845 | 0.575 | 0.574 | 0.7 |  | 0.748 | 0.427 |  | 0.478 | 0.426 | 0.425 | 0.857
6 | NCI-H596 | 1.05 | 0.972 | 1.13 | 0.866 | 0.52 | 0.506 | 0.483 | 0.438 | 0.444 | 0.534 | 0.56 | 0.618 | 0.562 | 0.623 | 0.661 | 0.775 | 0.67 | 0.745 | 0.881 | 0.953
7 | NCI-H460 | 0.386 | 0.402 | 0.229 | 0.221 | 0.0519 | 0.0632 | 0.0612 | 0.0661 | 0.0611 | 0.819 | 0.69 | 0.708 | 0.684 | 0.672 | 0.505 | 0.447 | 0.438 | 0.413 | 0.557 | 0.393
